The values that follow come from ChEMBL document CHEMBL3580570, “Discovery and SAR study of a sulfonamide hydroxamic acid inhibitor for the botulinum neurotoxin serotype A light chain” (Medchemcomm, 2014).

What is called Ki is a measure of affinity in units of concentration, obtained from inhibition or displacement. High values mean a looser hold on the target, low ones a stronger hold on the target. In general, IC50 refers to the concentration that inhibits the measured activity by half. A higher IC50 goes with a need for much substance.

Chain of Botulinum neurotoxin type A (P0DPI0 2-448 limits assumed): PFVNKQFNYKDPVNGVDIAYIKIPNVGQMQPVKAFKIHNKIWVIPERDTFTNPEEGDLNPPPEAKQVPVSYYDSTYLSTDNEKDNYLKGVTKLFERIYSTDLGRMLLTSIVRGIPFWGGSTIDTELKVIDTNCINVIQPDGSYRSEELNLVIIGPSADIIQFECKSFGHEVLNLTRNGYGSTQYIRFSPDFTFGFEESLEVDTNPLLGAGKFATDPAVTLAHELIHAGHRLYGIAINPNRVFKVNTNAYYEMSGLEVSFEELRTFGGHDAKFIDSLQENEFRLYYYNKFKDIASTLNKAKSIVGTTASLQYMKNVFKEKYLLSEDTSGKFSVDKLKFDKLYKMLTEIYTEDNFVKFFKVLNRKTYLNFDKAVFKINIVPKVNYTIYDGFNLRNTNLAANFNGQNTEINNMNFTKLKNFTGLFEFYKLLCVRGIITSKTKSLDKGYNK

This experiment addresses Botulinum neurotoxin type A (Clostridium botulinum, UniProt P0DPI0). As to the kind of experiment: Competitive inhibition of Clostridium botulinum BoNT/A LC using SNAPtide as substrate after 10 mins by FRET assay.
In the case of `O=C(NO)[C@@H]1C[C@@H](Oc2ccc(Cl)cc2)CN1S(=O)(=O)c1ccc(Cl)cc1`, the affinity corresponds to a Ki of 6.3 µM. As to `CC[C@H](C)[C@H](NS(=O)(=O)c1ccc(-c2ccc(F)cc2)cc1)C(=O)NO`, the IC50 was determined as 9.6 µM. In turn, `CC[C@H](C)[C@H](NS(=O)(=O)c1ccc(-c2ccc(NC(C)=O)cc2)cc1)C(=O)NO` registered an IC50 greater than 100 µM. `CC[C@H](C)[C@H](NS(=O)(=O)c1ccc(-c2ccc(OC)cc2)cc1)C(=O)NO` had an IC50 greater than 100 µM. Compound `CC[C@H](C)[C@H](NS(=O)(=O)c1ccc(-c2ccccc2)cc1)C(=O)NO` returned a concentration for half-maximal inhibition (IC50) of 27.7 µM. On the same count and under the same terms, then `CC[C@H](C)[C@H](NS(=O)(=O)c1cccc(-c2ccc(Cl)cc2)c1)C(=O)NO`, with 8.14 µM. Compound `CC[C@H](C)[C@H](NS(=O)(=O)c1ccc2c(c1)OCCO2)C(=O)NO` returned an IC50 of 20.7 µM. As for `CC[C@H](C)[C@H](NS(=O)(=O)c1ccccc1)C(=O)NO`, the half-maximal inhibitory concentration (IC50) was greater than 100 µM. On to `CC[C@H](C)[C@@H](NS(=O)(=O)c1ccc(-c2ccc(Cl)cc2)cc1)C(=O)NO`, for which the IC50 worked out at 11.8 µM. The same measure, in the same setting: in the case of `CC[C@@H](C)[C@H](NS(=O)(=O)c1ccc(-c2ccc(Cl)cc2)cc1)C(=O)NO` it was 41.8 µM; in that of `CC[C@@H](C)[C@@H](NS(=O)(=O)c1ccc(-c2ccc(Cl)cc2)cc1)C(=O)NO`, 6.91 µM; in that of `CC(C)C[C@@H](NS(=O)(=O)c1ccc(-c2ccc(Cl)cc2)cc1)C(=O)NO`, 25.9 µM.

The compound `CC(C)C[C@H](NS(=O)(=O)c1ccc(-c2ccc(Cl)cc2)cc1)C(=O)NO` showed an IC50 of 24.8 µM. `CC(C)[C@H](NS(=O)(=O)c1ccc(-c2ccc(Cl)cc2)cc1)C(=O)NO` registered an IC50 of 38.2 µM. This IC50 lies about 1.5-fold higher than the previous one. In the case of `O=C(NO)[C@H](Cc1ccccc1)NS(=O)(=O)c1ccc(-c2ccc(Cl)cc2)cc1`, the IC50 was greater than 100 µM. As for `O=C(NO)[C@@H]1CCCN1S(=O)(=O)c1ccc(-c2ccc(Cl)cc2)cc1`, the IC50 is greater than 100 µM.

In turn, `CC[C@H](C)[C@H](NS(=O)(=O)c1ccc(-c2ccc(Cl)cc2)cc1)C(=O)O` returned an IC50 greater than 100 µM. Take `CC[C@H](C)[C@H](NS(=O)(=O)c1ccc(-c2ccc(Cl)cc2)cc1)C(N)=O`: the IC50 is greater than 100 µM. As for `CC[C@H](C)[C@H](NS(=O)(=O)c1ccc(-c2ccc(Cl)cc2)cc1)C(=O)NO`, the half-inhibitory concentration (IC50) was determined as 10.1 µM. `CC[C@H](C)[C@H](NS(=O)(=O)c1ccc(-c2ccc(C)cc2)cc1)C(=O)NO` gave a concentration for half-maximal inhibition (IC50) greater than 100 µM. Same read-out and setting: then `CC[C@@H](C)[C@@H](NS(=O)(=O)c1cccc(-c2ccc(Cl)cc2)c1)C(=O)NO`, with 0.95 µM.
